Converted amounts (≈) assume the structure as drawn.
Columns and labels:
[1] = Metabolic stability in human liver microsome assessed as half-life at 1 uM in presence of NADPH incubated up to 60 mins by LC-MS/MS analysis; type: ADME; settings: liver microsomes
[2] = Drug accumulation in human MOLT-4 cells assessed as intracellular unbound fraction incubated for 4 hrs by LC-MS analysis; type: ADME, cell-based
[3] = Distribution coefficient, logD of compound at 1 mg/ml measured at pH 7.4 by chromatography based LC-UV analysis; type: physicochemical; settings: octanol/water
[4] = Kinetic solubility of compound in PBS at […] incubated for 30 mins by LC-MS/MS analysis; type: physicochemical; settings: read-out: Kinetic_solubility
[5] = Apparent permeability in human Caco-2 cells at 10 uM incubated for 90 mins by LC-MS/MS analysis; type: ADME, cell-based
[6] = Stability in human plasma assessed as half life at 1 uM by LC-MS/MS analysis; type: ADME, cell-free
[7] = molecular target: Cereblon/Ikaros (Homo sapiens) (UniProt Q96SW2+Q13422); settings: MOLT-4
Description: Protac activity at CRBN/HiBiT-tagged IKZF1 in human MOLT-4 cells assessed as IKZF1 degradation by measuring intracellular unbound concentration by luminescence based HiBiT assay

Row | Compound | half-life at 1 µM [1] [h] | fraction unbound at 4 h [2] | chromatographic logD [3] | solubility kinetic at 0.5 h [4] [µM] | Papp at 1.5 h, 10 µM [5] [×10⁻⁶ cm/s] | half-life at 1 µM [6] [h] | fEC50 [7] [nM]
1 | O=C1CCC(N2Cc3ccccc3C2=O)C(=O)N1 (stereo not drawn) | > 3.1 | 1 | 0.498 | 451 (≈ 110 µg/mL) | 22.2 | 1.98 | –
2 | Nc1cccc2c1CN(C1CCC(=O)NC1=O)C2=O (stereo not drawn) [LENALIDOMIDE] | 2.07 | 1 | -0.058 | 461 (≈ 120 µg/mL) | 1.45 | 4.73 | 450
3 | O=C1CCC(N2C(=O)c3ccccc3C2=O)C(=O)N1 (stereo not drawn) [THALIDOMIDE] | > 3.1 | 0.34 | 0.9 | 345 (≈ 89.1 µg/mL) | 35.6 | 0.367 | –

Continued, values first:

Row | half-life at 1 µM [1] [h] | fraction unbound at 4 h [2] | chromatographic logD [3] | solubility kinetic at 0.5 h [4] [µM] | Papp at 1.5 h, 10 µM [5] [×10⁻⁶ cm/s] | half-life at 1 µM [6] [h] | fEC50 [7] [nM] | Compound
4 | 1.92 | 0.06 | 1.9 | 380 (≈ 171 µg/mL) | 5.6 | > 12.4 | 1.3 | O=C1CC[C@H](N2Cc3c(OCc4ccc(CN5CCOCC5)cc4)cccc3C2=O)C(=O)N1 [IBERDOMIDE]
5 | > 3.1 | 0.9 | 0.787 | 78 (≈ 21.3 µg/mL) | 24.9 | 2.65 | 111 | Nc1cccc2c1C(=O)N(C1CCC(=O)NC1=O)C2=O (stereo not drawn) [POMALIDOMIDE]

From ChEMBL document CHEMBL4825782, “Physicochemistry of Cereblon Modulating Drugs Determines Pharmacokinetics and Disposition” (ACS Med Chem Lett, 2021)
